US11879137B2, “Treatment of type 1 diabetes and autoimmune diseases or disorders” (THE CHILDREN'S MEDICAL CENTER CORPORATION, priority 2017, dated 2024)

Tested on: CD34+ cells
Assay: qRT-PCR of PD-L1, CXCR4 and IDO-1 in prostaglandin-modulated CD34+ cells
Format: cell-based, human
Conditions: for PD-L1 mRNA expression by RT-PCR: CD34+ cells upon modulation
Description: qRT-PCR. RNA was extracted from CD34+ cells using Direct-Zol™ RNA Kits (Zymo, Irvine, CA, USA) and Trizol Reagent (Invitrogen Carlsbad, CA), RNA quality was assessed by Multiskan™ GO Microplate spectrophotometer and the ratios of absorbance at 260 nm and 280 nm were assessed for all the samples. Only samples with RNA ratios within 1.9 were included in the present study. cDNA synthesis was made from purified total RNA by reverse transcription using High capacity cDNA Reverse Transcription RETROscript® Kit (Thermo Fisher Scientific, Waltham, MA, USA) followed by a pre-amplification using Taqman PreAmp Kit (Applied Biosystems) according to the manufacturer's instructions. qRT-PCR analysis was performed using TaqMan assays (Life Technologies, Grand Island, NY) containing PCR primers and TaqMan probes according to the manufacturer's instructions. Normalized expression values were determined using the ΔCt method. Quantitative reverse transcriptase polymerase chain reaction (qRT-PCR) data were normalized for the expression of GAPDH. qRT-PCR reactions were performed in triplicate in a 96-well format using an Applied Biosystems 7900HT fast real-time PCR instrument. Relative expression was calculated using the comparative threshold cycle method as previously described (23, 24). For two-group comparisons, a Student's t test was employed. Reported below are the main characteristics of the primers used: […]
Prostaglandin library screening. PGE2 has been described as a small molecule known to enhance the homing and engraftment of HSPCs. It was therefore sought to screen all known types of prostaglandins using the Prostaglandin Screening Library II, which contains 64 small molecules. Each small molecule contained in the library was first screened for its capacity to upregulate PD-L1 in human CD34+ cells isolated from T1D patients (FIG. 17A-17B). CD34+ cells isolated from T1D patients were cultured in StemSpan SFEMII and pulsed with each PG (prostaglandin) small molecule contained in the aforementioned library at a concentration of 10 μM at 24 and 48h. Using FACS analysis, the MFI (mean fluorescence intensity) of PD-L1 expression was calculated following treatment with each small molecule used to modulate CD34+ cells as compared to untreated/unmodulated CD34+ cells (FIG. 17B). A heat map was generated depicting the degree to which each PG small molecule affected PD-L1 expression on CD34+ cells (FIG. 17B), thus allowing for the evaluation of PG candidates. Based on its ability to modulate PD-L1 expression, PGE2 was selected as a candidate for further study; in addition, PGE2 has been described in the literature and has been tested in clinical trials as a potential therapy for enhancing HSPC engraftment following cord blood transplantation (21). Isolated CD34+ cells from healthy control patients (CTRL) and from T1D patients were cultured in StemSpan SFEMII and pulsed with 10 μM of PGE2 at 24 hours and 48 hours. […] It was therefore sought to perform a migration assay in order to assess the homing properties of PGE2-treated CD34+ cells (FIG. 17F).

| Compound | PD-L1 mRNA expression by RT-PCR | IDO-1 expression (mRNA) (post-pharmacologic modulation) | increase of CXCR4 gene expression by RT-PCR (vs untreated CD34+ cells) |
| --- | --- | --- | --- |
| CCCCC(C)(C)[C@H](O)/C=C/[C@H]1[C@H](O)CC(=O)[C@@H]1C/C=C\CCCC(=O)O [16,16-dimethyl PGE2] | marked upregulation | – | – |
| CCCCC[C@H](O)/C=C/[C@H]1[C@H](O)CC(=O)[C@@H]1C/C=C\CCCC(=O)O [PGE2, prostaglandin E2] | slight increase | remained unchanged | 2 fold |
